This is an account of results in PubChem BioAssay (NCI).

Some test systems named below: A549 NSCLC; MCF7 breast; OVCAR-4 ovarian; SF-539 CNS; SK-MEL-2 melanoma; SK-MEL-28 melanoma; SNB-19 CNS; SW-620 colon; U251 CNS; UACC-62 melanoma.
What all share (assay): NCI tumour cell line growth inhibition, 48 h

Several values for one entry are separate records, joined by “and”; a condition that tells them apart may be missing. Equal values may be shown once.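 Values below derive from 48-hour exposures of cells grown in 96-well plates, with endpoints linearly interpolated between the two concentrations bracketing the appropriate inhibition level. GI50 marks 50% less growth. TGI denotes the concentration required for complete inhibition of growth.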

As for `Cc1ccc(-c2nc([P+](c3ccccc3)(c3ccccc3)c3ccccc3)c(N3CCOCC3)o2)cc1`, the GI50 was 0.5 µM with A549 NSCLC; 0.316 µM with MCF7 breast; 0.281 µM in the experiment on OVCAR-4 ovarian; 0.787 µM with SF-539 CNS; 0.559 µM in the experiment with SK-MEL-2 melanoma; 0.515 µM in the experiment on SK-MEL-28 melanoma. The GI50 in the experiment on SNB-19 CNS was 0.333 µM; in the experiment on SW-620 colon, 0.467 µM; in the experiment on U251 CNS, 0.313 µM; in the experiment with UACC-62 melanoma, 0.35 µM. For the same molecule, the TGI in the experiment on A549 NSCLC was found to be 14 µM; in the experiment on MCF7 breast, 2.18 µM; in the experiment with OVCAR-4 ovarian, 3.03 µM; in the experiment on SF-539 CNS, 10.1 µM; in the experiment on SK-MEL-2 melanoma, 2.76 µM; in the experiment with SK-MEL-28 melanoma it was 9.18 µM. Besides, the TGI was 4.91 µM with SNB-19 CNS, 11.8 µM in the experiment with SW-620 colon, 11.9 µM with U251 CNS and 1.45 µM in the experiment with UACC-62 melanoma.

For `O=[N+]([O-])c1ccc(/C=C(/c2ccc([N+](=O)[O-])o2)S(=O)(=O)c2ccccc2)cc1`, the TGI in the experiment with A549 NSCLC is above 100 µM; in the experiment on MCF7 breast, above 100 µM; with OVCAR-4 ovarian, above 100 µM; with SF-539 CNS, 98.3 µM; with SK-MEL-2 melanoma, above 100 µM; in the experiment with SK-MEL-28 melanoma it was above 100 µM. The TGI with SNB-19 CNS is above 100 µM; in the experiment on SW-620 colon, above 100 µM; in the experiment on U251 CNS, above 100 µM; with UACC-62 melanoma, 75.7 µM.

For `COc1nc(N)nc2nc[nH]c12`, the GI50 with A549 NSCLC was > 800 µM and 713 µM; with MCF7 breast, 604 µM; in the experiment with OVCAR-4 ovarian, > 800 µM and 982 µM; in the experiment with SF-539 CNS, above 800 µM; in the experiment on SK-MEL-2 melanoma, above 800 µM; in the experiment on SK-MEL-28 melanoma, above 1000 µM. For the same molecule, the GI50 is above 1000 µM in the experiment on SNB-19 CNS; above 1000 µM in the experiment on SW-620 colon; > 800 µM and 741 µM in the experiment with U251 CNS; 441 µM and 349 µM with UACC-62 melanoma. Moreover, the TGI is above 1000 µM in the experiment on A549 NSCLC; 500 µM and > 1000 µM in the experiment on MCF7 breast; 500 µM and > 800 µM and > 1000 µM in the experiment with OVCAR-4 ovarian; 500 µM and > 800 µM and > 1000 µM with SF-539 CNS; 500 µM and > 800 µM and > 853 µM in the experiment with SK-MEL-2 melanoma; above 1000 µM in the experiment with SK-MEL-28 melanoma. For the same molecule, the TGI with SNB-19 CNS is above 1000 µM; with SW-620 colon, above 1000 µM; in the experiment with U251 CNS, 500 µM and > 800 µM and > 1000 µM; in the experiment on UACC-62 melanoma it was 429 µM and 800 µM and > 1000 µM.

Turning to `COc1ccc(-c2c(Nc3ccccn3)nc3c(C4=CCCCC4)c(-c4ccccc4)[nH]n3c2=O)cc1`, the GI50 was 1.94 µM in the experiment on A549 NSCLC; 1.81 µM in the experiment with MCF7 breast; 2.31 µM in the experiment on OVCAR-4 ovarian; 2.81 µM with SF-539 CNS; 2.21 µM with SK-MEL-2 melanoma; 4.55 µM with SK-MEL-28 melanoma. Moreover, the GI50 in the experiment on SNB-19 CNS was 3.12 µM; with SW-620 colon, 3.07 µM; in the experiment on U251 CNS, 1.95 µM; with UACC-62 melanoma, 2.2 µM. In addition, the TGI in the experiment on A549 NSCLC is above 100 µM; in the experiment with MCF7 breast it was 15.5 µM; in the experiment with OVCAR-4 ovarian, above 100 µM; in the experiment on SF-539 CNS, 18.6 µM; in the experiment with SK-MEL-2 melanoma, 9.54 µM; with SK-MEL-28 melanoma, above 100 µM. Besides, the TGI with SNB-19 CNS was 17.2 µM; in the experiment on SW-620 colon, above 100 µM; in the experiment on U251 CNS, 17.9 µM; in the experiment on UACC-62 melanoma it was 16.2 µM.

`C#CCCCCCC(=O)N[C@H]1C=C[C@@H]2/C=C(C)/C=C/[C@@H](C)[C@H]([C@H](C)[C@H](O)[C@@H](C)NC(C)=O)OC(=O)/C=C/C=C(C)\C=C\[C@]2(C)C1`: the GI50 in the experiment on A549 NSCLC is below 0.004 µM; with MCF7 breast, below 0.004 µM; in the experiment on OVCAR-4 ovarian, 3.06 µM; in the experiment with SF-539 CNS it was below 0.004 µM; in the experiment with SK-MEL-2 melanoma, 4.87 µM; in the experiment on SK-MEL-28 melanoma, 0.00795 µM. Besides, the GI50 was 0.0247 µM in the experiment on SNB-19 CNS, below 0.004 µM with SW-620 colon, below 0.004 µM in the experiment on U251 CNS and 0.023 µM with UACC-62 melanoma. The TGI with A549 NSCLC is above 40 µM; in the experiment with MCF7 breast, above 40 µM; in the experiment with OVCAR-4 ovarian, above 40 µM; in the experiment on SF-539 CNS, 32.3 µM; in the experiment with SK-MEL-2 melanoma, above 40 µM; in the experiment on SK-MEL-28 melanoma, 12.3 µM. Also, the TGI in the experiment on SNB-19 CNS was above 40 µM; in the experiment on SW-620 colon it was above 40 µM; in the experiment with U251 CNS, above 40 µM; with UACC-62 melanoma, 9.04 µM.

In the case of `COc1cc2c(cc1OCCN1CCN(CCN3C(=O)c4cccc5cccc(c45)C3=O)CC1)N=C[C@@H]1CCCN1C2=O`, the GI50 is 18.7 µM in the experiment on A549 NSCLC; 15.8 µM in the experiment on MCF7 breast; 24.6 µM in the experiment on OVCAR-4 ovarian; 20.8 µM with SF-539 CNS; 24.6 µM in the experiment on SK-MEL-2 melanoma; 32.5 µM in the experiment with SK-MEL-28 melanoma. Also, the GI50 in the experiment on SNB-19 CNS was 29.9 µM; with SW-620 colon, 19.6 µM; in the experiment on U251 CNS, 16.1 µM; in the experiment on UACC-62 melanoma, 18.2 µM. Further, the TGI in the experiment with A549 NSCLC worked out at 47.3 µM; in the experiment with MCF7 breast, 32.4 µM; in the experiment with OVCAR-4 ovarian it was 47.3 µM; in the experiment with SF-539 CNS, 45.6 µM; with SK-MEL-2 melanoma, 51.1 µM; with SK-MEL-28 melanoma, 77.7 µM. The TGI in the experiment on SNB-19 CNS stood at 53.7 µM; with SW-620 colon, 40 µM; with U251 CNS it was 34.1 µM; in the experiment on UACC-62 melanoma it was 35 µM.

As for `N#C[Se]CCN1C(=O)c2ccccc2C1=O`, the GI50 in the experiment on A549 NSCLC was 2.55 µM; with MCF7 breast it was 2.24 µM; with OVCAR-4 ovarian, 4.17 µM; in the experiment on SF-539 CNS it was 1.92 µM; in the experiment on SK-MEL-2 melanoma, 3.71 µM; in the experiment on SK-MEL-28 melanoma, 1.8 µM. Moreover, the GI50 with SNB-19 CNS was 2.41 µM; in the experiment with SW-620 colon, 2.38 µM; with U251 CNS, 2.63 µM; in the experiment with UACC-62 melanoma, 1.52 µM. Besides, the TGI was 8.93 µM in the experiment on A549 NSCLC; 13.1 µM in the experiment on MCF7 breast; 23.9 µM in the experiment with OVCAR-4 ovarian; 6.85 µM in the experiment with SF-539 CNS; 19.1 µM in the experiment on SK-MEL-2 melanoma; 4.99 µM in the experiment on SK-MEL-28 melanoma. For the same molecule, the TGI amounted to 8.66 µM in the experiment on SNB-19 CNS, 5.66 µM in the experiment on SW-620 colon, 8.71 µM in the experiment on U251 CNS and 3.74 µM in the experiment on UACC-62 melanoma.

As to `O=C(CC1(O)C(=O)Nc2c(Cl)cc(Cl)cc21)c1cccc([N+](=O)[O-])c1` (stereo not given), the TGI is 98.9 µM with A549 NSCLC; 33.3 µM in the experiment on MCF7 breast; 30 µM in the experiment with OVCAR-4 ovarian; 55.4 µM in the experiment on SF-539 CNS; above 86.3 µM in the experiment with SK-MEL-2 melanoma; above 80.6 µM in the experiment on SK-MEL-28 melanoma. Further, the TGI is above 100 µM with SNB-19 CNS, above 64.4 µM in the experiment with SW-620 colon, above 70.8 µM in the experiment with U251 CNS and 44.7 µM in the experiment on UACC-62 melanoma.
